# Assay results taken from article PMC10999085, “Synthesis, anticancer evaluation, molecular docking and ADME study of novel pyrido[4ʹ,3ʹ:3,4]pyrazolo[1,5-a]pyrimidines as potential tropomyosin receptor kinase A (TrKA) inhibitors” (BMC Chemistry, 2024).
# Key:
# MCF7 cell line = test: MTT assay, MCF7 cell line; assay type: cell-based, human; settings: 24 hr treatment, in % (unit assumed); for Cytotoxicity at 5 µg/l: MCF7, 5 µg/l; for Cytotoxicity at 10 µg/l: MCF7, 10 µg/l; for Cytotoxicity at 20 µg/l: MCF7, 20 µg/l
# Description: (§1) Determination of the inhibitory effects of compounds on cell growth was performed through the MTT assay. This colorimetric assay is based on the conversion of the yellow tetrazolium bromide (MTT) to a purple formazan derivative by mitochondrial succinate dehydrogenase in viable cells. The protocol was discussed in details in Additional file 1.
# (§2) Compounds 1, 4a,b, 7a–c, 7k, l, 9a–c, 14a, 15b, 16a–c were selected to be investigated against three human cancer cell lines MCF7, HepG2 and HCT116 cell lines using MTT assay using doxorubicin as the standard drug. Each point is the mean ± SD (standard deviation) of three independent experiments performed in triplicate, using the prism software program (integrated Graphpad software, version 3).
# (§3) Cell lines were used to measure the cell growth effects of the compounds using the MTT assay. This colorimetric assay is depend on the conversion of the yellow tetrazolium bromide (MTT) to a purple formazan derivative by mitochondrial succinate dehydrogenase in living cells. Cell lines were cultured in RPMI-1640 medium supplemented with 10% fetal bovine serum. The antibiotics added were 100 units/ml penicillin and 100 µg/ml streptomycin at 37 °C in a 5% CO2 incubator. Cell lines were seeded in a 96-well plates at a density of 1.0x10^4 cells/well and cultured at 37 °C for 48 h under 5% CO2. After incubation, the cells were treated with different concentrations of compounds and incubated for 24 hr. After 24 hr of drug treatment, 20 µl of MTT solution at 5 mg/ml was added to each well and incubated for 4 hr. 100 µl of dimethyl sulfoxide (DMSO) was added into each well to dissolve the purple formazan formed. The colorimetric assay was measured and recorded at absorbance of 570 nm using a plate reader (EXL 800, USA). Relative cell viability (%) was calculated as (A570 of treated sample/A570 of untreated sample) x 100 [36, 37].
# HCT-116 cell line = test: MTT assay, HCT-116 cell line; assay type: cell-based, human; settings: for Cytotoxicity at 5 µg/l: HCT116, 5 µg/l; for Cytotoxicity at 5 µg/l / Cytotoxicity at 10 µg/l / Cytotoxicity at 20 µg/l: MTT, 24 hr treatment, in % (unit assumed); for Cytotoxicity at 10 µg/l: HCT116, 10 µg/l; for Cytotoxicity at 20 µg/l: HCT116, 20 µg/l
# Description: as §1, §2, §3
# HepG2 cell line = test: MTT assay, HepG2 cell line; assay type: cell-based, human; settings: for Cytotoxicity at 5 µg/l: HepG2, 5 µg/l; for Cytotoxicity at 5 µg/l / Cytotoxicity at 10 µg/l / Cytotoxicity at 20 µg/l: MTT, 24 hr treatment, in % (unit assumed); for Cytotoxicity at 10 µg/l: HepG2, 10 µg/l; for Cytotoxicity at 20 µg/l: HepG2, 20 µg/l
# Description: as §1, §2, §3
SMILES,melting point [°C],also measured
"Nc1n[nH]c2c1C(=O)NC(=O)C2 [Compound 1, 3-amino-1,7-dihydro-4H-pyrazolo[4,3-c]pyridine-4,6(5H)-dione]",,Cytotoxicity at 5 µg/l (MCF7 cell line): 31.71; Cytotoxicity at 10 µg/l (MCF7 cell line): 61.39; Cytotoxicity at 20 µg/l (MCF7 cell line): 73.65; Cytotoxicity at 5 µg/l (HCT-116 cell line): 16.23; Cytotoxicity at 10 µg/l (HCT-116 cell line): 52.09; Cytotoxicity at 20 µg/l (HCT-116 cell line): 71.08; Cytotoxicity at 5 µg/l (HepG2 cell line): 43.17; Cytotoxicity at 10 µg/l (HepG2 cell line): 53.18; Cytotoxicity at 20 µg/l (HepG2 cell line): 65.34
"Cc1cc(C)n2nc3c(c2n1)C(=O)NC(=O)C3=Cc1ccccc1O [Compound 7d, 7-(2-Hydroxybenzylidene)-2,4-dimethylpyrido[4ʹ,3ʹ:3,4]pyrazolo[1,5-a]pyrimidine-8,10(7H,9H)-dione]",> 360,
"COc1cc(C=C2C(=O)NC(=O)c3c2nn2c(C)cc(C)nc32)cc(OC)c1OC [Compound 7f, 2,4-Dimethyl-7-(3,4,5-trimethoxybenzylidene)pyrido[4ʹ,3ʹ:3,4]pyrazolo[1,5-a]pyrimidine-8,10(7H,9H)-dione]",240,
"Cc1cc(C)n2nc3c(c2n1)C(=O)NC(=O)C3=Cc1ccc2c(c1)OCO2 [Compound 7g, 7-(Benzo[d][1,3]dioxol-5-ylmethylene)-2,4-dimethylpyrido[4ʹ,3ʹ:3,4]pyrazolo[1,5-a]-pyrimidine-8,10(7H,9H)-dione]",300,
"Cc1cc(C)n2nc3c(c2n1)C(=O)NC(=O)C3=Cc1cccs1 [Compound 7i, 2,4-Dimethyl-7-(thiophen-2-ylmethylene)pyrido[4ʹ,3ʹ:3,4]pyrazolo[1,5-a]pyrimidine-8,10(7H,9H)-dione]",290,
"Cc1cc(C)n2nc3c(c2n1)C(=O)NC(=O)C3=Cc1ccncc1 [Compound 7j, 2,4-Dimethyl-7-(pyridin-4-ylmethylene)pyrido[4ʹ,3ʹ:3,4]pyrazolo[1,5-a]pyrimidine-8,10(7H,9H)-dione]",270,
"O=C1NC(=O)c2c(nn3c(-c4ccccc4)cc(-c4ccccc4)nc23)C1=Cc1ccc(Cl)cc1 [Compound 7m, 7-(4-Chlorobenzylidene)-2,4-diphenylpyrido[4ʹ,3ʹ:3,4]pyrazolo[1,5-a]pyrimidine-8,10(7H,9H)-dione]",320,
"O=C1NC(=O)c2c(nn3c(-c4ccccc4)cc(-c4ccccc4)nc23)C1=Cc1ccccc1O [Compound 7n, 7-(2-Hydroxybenzylidene)-2,4-diphenylpyrido[4ʹ,3ʹ:3,4]pyrazolo[1,5-a]pyrimidine-8,10(7H,9H)-dione]",275,
"COc1ccc(OC)c(C=C2C(=O)NC(=O)c3c2nn2c(-c4ccccc4)cc(-c4ccccc4)nc32)c1 [Compound 7o, 7-(2,5-Dimethoxybenzylidene)-2,4-diphenylpyrido[4ʹ,3ʹ:3,4]pyrazolo[1,5-a]pyrimidine-8,10(7H,9H)-dione]",275,
"COc1cc(C=C2C(=O)NC(=O)c3c2nn2c(-c4ccccc4)cc(-c4ccccc4)nc32)cc(OC)c1OC [Compound 7p, 2,4-Diphenyl-7-(3,4,5-trimethoxybenzylidene)pyrido[4ʹ,3ʹ:3,4]pyrazolo[1,5-a]-pyrimidine-8,10(7H,9H)-dione]",315,
"O=C1NC(=O)c2c(nn3c(-c4ccccc4)cc(-c4ccccc4)nc23)C1=Cc1ccc2c(c1)OCO2 [Compound 7q, 7-(Benzo[d][1,3]dioxol-5-ylmethylene)-2,4-diphenylpyrido[4ʹ,3ʹ:3,4]pyrazolo[1,5-a]-pyrimidine-8,10(7H,9H)-dione]",335,
"O=C1NC(=O)c2c(nn3c(-c4ccccc4)cc(-c4ccccc4)nc23)C1=Cc1ccco1 [Compound 7r, 7-(Furan-2-ylmethylene)-2,4-diphenylpyrido[4ʹ,3ʹ:3,4]pyrazolo[1,5-a]pyrimidine-8,10(7H,9H)-dione]",335,
"O=C1NC(=O)c2c(nn3c(-c4ccccc4)cc(-c4ccccc4)nc23)C1=Cc1cccs1 [Compound 7s, 2,4-Diphenyl-7-(thiophen-2-ylmethylene)pyrido[4ʹ,3ʹ:3,4]pyrazolo[1,5-a]pyrimidine-8,10(7H,9H)-dione]",315,
"O=C1NC(=O)c2c(nn3c(-c4ccccc4)cc(-c4ccccc4)nc23)C1=Cc1ccncc1 [Compound 7t, 2,4-Diphenyl-7-(pyridin-4-ylmethylene)pyrido[4ʹ,3ʹ:3,4]pyrazolo[1,5-a]pyrimidine-8,10(7H,9H)-dione]",340,
"Cc1cc(C)n2nc3c(c2n1)C(=O)NC(=O)C3=NNc1ccc(Cl)cc1 [Compound 9d, 7-(2-(4-Chlorophenyl)hydrazono)-2,4-dimethylpyrido[4ʹ,3ʹ:3,4]pyrazolo[1,5-a]pyrimidine-8,10(7H,9H)-dione]",300,
"O=C1NC(=O)c2c(nn3c(-c4ccccc4)cc(-c4ccccc4)nc23)C1=NNc1ccccc1 [Compound 11a, 2,4-Diphenyl-7-(2-phenylhydrazono)pyrido[4ʹ,3ʹ:3,4]pyrazolo[1,5-a]pyrimidine-8,10(7H,9H)-dione]",315,
"Cc1ccc(NN=C2C(=O)NC(=O)c3c2nn2c(-c4ccccc4)cc(-c4ccccc4)nc32)cc1 [Compound 11b, 2,4-Diphenyl-7-(2-(p-tolyl)hydrazono)pyrido[4ʹ,3ʹ:3,4]pyrazolo[1,5-a]pyrimidine-8,10(7H,9H)-dione]",320,
"O=C1NC(=O)c2c(nn3c(-c4ccccc4)cc(-c4ccccc4)nc23)C1=NNc1ccc(Cl)cc1 [Compound 11d, 7-(2-(4-Chlorophenyl)hydrazono)-2,4-diphenylpyrido[4ʹ,3ʹ:3,4]pyrazolo[1,5-a]pyrimidine-8,10(7H,9H)-dione]",335,
"O=C1Cc2nn3c(O)cc(-c4ccccc4)nc3c2C(=O)N1 [Compound 14b, 4-Hydroxy-2-phenylpyrido[4ʹ,3ʹ:3,4]pyrazolo[1,5-a]pyrimidine-8,10(7H,9H)-dione]",310,
"Cc1cc(O)n2nc3c(c2n1)C(=O)NC(=O)C3=Cc1ccccc1 [Compound 15a, 7-Benzylidene-4-hydroxy-2-methylpyrido[4ʹ,3ʹ:3,4]pyrazolo[1,5-a]pyrimidine-8,10(7H,9H)-dione]",305,
"Cc1cc(O)n2nc3c(c2n1)C(=O)NC(=O)C3=Cc1ccc(Cl)cc1 [Compound 15c, 7-(4-Chlorobenzylidene)-4-hydroxy-2-methylpyrido[4ʹ,3ʹ:3,4]pyrazolo[1,5-a]pyrimidine-8,10(7H,9H)-dione]",330,
"O=C1NC(=O)c2c(nn3c(O)cc(-c4ccccc4)nc23)C1=Cc1ccccc1 [Compound 15d, 7-Benzylidene-4-hydroxy-2-phenylpyrido[4ʹ,3ʹ:3,4]pyrazolo[1,5-a]pyrimidine-8,10(7H,9H)-dione]",300,
"COc1ccc(C=C2C(=O)NC(=O)c3c2nn2c(O)cc(-c4ccccc4)nc32)cc1 [Compound 15e, 4-Hydroxy-7-(4-methoxybenzylidene)-2-phenylpyrido[4ʹ,3ʹ:3,4]pyrazolo[1,5-a]pyrimidine-8,10(7H,9H)-dione]",300,
"O=C1NC(=O)c2c(nn3c(O)cc(-c4ccccc4)nc23)C1=Cc1ccc(Cl)cc1 [Compound 15f, 7-(4-Chlorobenzylidene)-4-hydroxy-2-phenylpyrido[4ʹ,3ʹ:3,4]pyrazolo[1,5-a]pyrimidine-8,10(7H,9H)-dione]",330,
"Cc1cc(O)n2nc3c(c2n1)C(=O)NC(=O)C3=NNc1ccc(Cl)cc1 [Compound 16d, 7-(2-(4-Chlorophenyl)hydrazono)-4-hydroxy-2-methylpyrido[4ʹ,3ʹ:3,4]pyrazolo[1,5-a]pyrimidine-8,10(7H,9H)-dione]",310,
"COc1cccc2c1C(=O)c1c(O)c3c(c(O)c1C2=O)C[C@@](O)(C(=O)CO)C[C@@H]3O[C@H]1C[C@H](N)[C@H](O)[C@H](C)O1 [Doxo, Doxorubicin, reference compound]",,"Cytotoxicity at 5 µg/l (MCF7 cell line): 75.43; Cytotoxicity at 10 µg/l (MCF7 cell line): 89.14; Cytotoxicity at 20 µg/l (MCF7 cell line): 98.19; Cytotoxicity at 5 µg/l (HCT-116 cell line): 62.14; Cytotoxicity at 10 µg/l (HCT-116 cell line): 77.18; Cytotoxicity at 20 µg/l (HCT-116 cell line): 95.26; IC50 (HCT-116 cell line; Homo sapiens, HCT-116, HCT116, MTT, read-out: IC50 (drug concentration that inhibited 50% of cell proliferation)): 3.64 ng/mL; Cytotoxicity at 5 µg/l (HepG2 cell line): 53.46; Cytotoxicity at 10 µg/l (HepG2 cell line): 68.59; Cytotoxicity at 20 µg/l (HepG2 cell line): 91.13; IC50 (HepG2 cell line; Homo sapiens, HepG2, MTT, read-out: IC50 (drug concentration that inhibited 50% of cell proliferation)): 4.75 ng/mL"
